According to patent US20240383922A1, “KRAS Modulating Compounds” (Gilead Sciences, Inc., priority 2023, published 2024):

Tests used:
GDP-loaded KRAS-G12D = GDP-loaded KRAS-G12D (Homo sapiens (Human), UniProt P01116, G12D); experiment: KRAS (GDP) biochemical TR-FRET probe displacement assay, KRAS-G12D; format: binding; conditions: 2 hours
Protocol: (§1) KRAS (GDP) Biochemical Assays:
(§2) Compounds were serially diluted (1:3) in DMSO. The LabCyte ECHO Acoustic dispenser was used to pre-spot the assay plates (384-well Non-Binding Surface plates, Corning, Catalog #3824) with 50 nL of compound. 5 μL of 2× enzyme concentration was added to the pre-spotted plates and incubated for 30 minutes before adding 5 μL of 2× concentration of Eu-streptavidin and Cy-5 labelled probe (10 μL final reaction volume). The plates were incubated at room temperature for 2 hours before measuring TR-FRET ratio (665 nm/615 nm) on the Envision multimode plate reader. The ratios were normalized to a positive (saturating concentration of known inhibitor) and negative (DMSO) control and plotted against the log of compound concentration.

GDP-loaded KRAS-G12V = GDP-loaded KRAS-G12V (Homo sapiens (Human), UniProt P01116, G12V); experiment: KRAS (GDP) biochemical TR-FRET probe displacement assay, KRAS-G12V; format: binding; conditions: 2 hours
Sequence of GDP-loaded KRAS-G12V (P01116-2 other isoform, or with tags, fused parts or gaps G12V): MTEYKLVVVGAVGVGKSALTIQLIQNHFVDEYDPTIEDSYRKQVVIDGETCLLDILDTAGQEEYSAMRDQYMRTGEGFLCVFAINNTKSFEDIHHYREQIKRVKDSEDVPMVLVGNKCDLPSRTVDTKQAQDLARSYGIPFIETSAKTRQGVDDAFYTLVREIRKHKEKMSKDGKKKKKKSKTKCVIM
Protocol: as §1, §2

[1] = target: GDP-loaded wild-type KRAS (WT) (Homo sapiens (Human), UniProt P01116); experiment: KRAS (GDP) biochemical TR-FRET probe displacement assay, WT KRAS; format: binding; conditions: 2 hours
Sequence of GDP-loaded wild-type KRAS (WT) (P01116-2 other isoform, or with tags, fused parts or gaps): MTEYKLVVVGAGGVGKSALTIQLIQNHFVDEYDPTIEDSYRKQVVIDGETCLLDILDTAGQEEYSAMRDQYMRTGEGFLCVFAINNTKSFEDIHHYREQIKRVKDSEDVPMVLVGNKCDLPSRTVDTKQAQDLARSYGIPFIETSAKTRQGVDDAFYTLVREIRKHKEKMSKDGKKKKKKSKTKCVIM
Protocol: as §1, §2

GDP-loaded KRAS-G12C = GDP-loaded KRAS-G12C (Homo sapiens (Human), UniProt P01116, G12C); experiment: KRAS (GDP) biochemical TR-FRET probe displacement assay, KRAS-G12C; format: binding; conditions: 2 hours
Sequence of GDP-loaded KRAS-G12C (P01116-2 other isoform, or with tags, fused parts or gaps G12C): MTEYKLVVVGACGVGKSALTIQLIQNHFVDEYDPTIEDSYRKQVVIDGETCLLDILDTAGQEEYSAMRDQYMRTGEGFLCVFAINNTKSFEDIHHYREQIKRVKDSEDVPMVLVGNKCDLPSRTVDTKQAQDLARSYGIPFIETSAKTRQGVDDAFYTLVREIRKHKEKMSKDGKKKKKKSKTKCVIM
Protocol: as §1, §2

[2] = test system: cellular pERK in ASPC-1 (KRAS G12D) cell-line; experiment: Cell based pERK assay (HTRF), ASPC-1; conditions: Homo sapiens, ASPC1; ASPC-1 (KRAS G12D) cells, 2 hours incubation
Method in brief: (§3)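 Following overnight attachment, cells received compound in a three-fold dilution series for 2 hours at 37 °C. Medium was then removed and combined lysis and phospho-ERK detection reagent was added for overnight incubation at room temperature before time-resolved FRET reading.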

[3] = test system: cellular pERK in MIA-PaCa-2 (KRAS-G12C) cell-line; experiment: Cell based pERK assay (HTRF), MIA-PaCa-2; conditions: Homo sapiens; MIA-PaCa-2 (KRAS-G12C) cells, 2 hours incubation; read-out: MIAPaCa2 pERK EC50
Method in brief: as §3

[4] = test system: cellular pERK in NCI-H441 (KRAS-G12V) cell-line; experiment: Cell based pERK assay (HTRF), NCI-H441; conditions: Homo sapiens; NCI-H441 (KRAS-G12V) cells, 2 hours incubation
Method in brief: as §3

[5] = test system: cellular pERK in Kuramochi (WT KRAS) cell-line; experiment: Cell based pERK assay (HTRF), Kuramochi; conditions: Kuramochi (WT KRAS) cells, 2 hours incubation
Method in brief: as §3

Sequence of GDP-loaded KRAS-G12D (P01116-2 other isoform, or with tags, fused parts or gaps G12D): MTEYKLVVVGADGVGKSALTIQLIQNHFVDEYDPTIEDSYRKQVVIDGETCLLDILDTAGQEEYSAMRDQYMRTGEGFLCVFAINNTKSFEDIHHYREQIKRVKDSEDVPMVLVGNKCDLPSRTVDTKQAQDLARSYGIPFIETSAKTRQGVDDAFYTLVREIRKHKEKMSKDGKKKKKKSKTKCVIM

- IC50 (GDP-loaded KRAS-G12D): 0.36 nM
- IC50 (GDP-loaded KRAS-G12V): 1.37 nM
- IC50 [1]: 1.61 nM
- IC50 (GDP-loaded KRAS-G12C): 0.67 nM
- EC50 [2]: 14.6 nM
- EC50 [3]: 5.57 nM
- EC50 [4]: 6.08 nM
- EC50 [5]: 2.15 nM
Structure (SMILES): C#Cc1c(F)ccc2cc(O)cc(-c3nc4c5c(nc(OCC67CCCN6[C@H](COCC(F)(F)F)CC7)nc5c3F)N3CCCOCC3CC4)c12 (some centres unmarked) [Example 22-8]
